Experimental data from patent US12310975B2, “Modulators of BCL6 proteolysis and associated methods of use” (Arvinas Operations, Inc., priority 2019, dated 2025).

Assays:
BCL6 [1] = target: T1, BCL6 (Homo sapiens (Human), UniProt P41182); experiment: Immunofluorescence high content imaging of BCL6 degradation in T47D cells; assay type: cell-based; conditions: for Dmax: T47D
Outline: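 BCL6 loss was quantified by high-content imaging (10×, 4 fields/well) after PFA fixation and anti-BCL6/Alexa-488 staining with Hoechst nuclear and CellMask counterstains. Compounds were applied for 3 days to T47D breast cancer cells in RPMI-10% FBS, 11 points, 3-fold steps, top 0.1 or 1 μM.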

BCL6 [2] = target: T1, BCL6; experiment: BCL6 TR-FRET assay (BCL6-Avitag-Biotin / BCoR-Cy5 peptide); assay type: binding
Outline: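 After 30 min room-temperature preincubation of compound titrations with 2 nM biotinylated BCL6-Avitag, 100 nM Cy5-labelled BCoR peptide plus 2 nM Eu-streptavidin were added and TR-FRET read 2 h later. HEPES pH 7.5/125 mM NaCl buffer with Triton X, glutathione (or DTT) and BSA.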

Row | SMILES | IC50 (BCL6 [1]) [nM] | Dmax (BCL6 [1]) [%] | EC50 (BCL6 [2]) [nM] | further results
1 | CNC(=O)COc1cc2cc(Nc3nc(N4CCN(C(C)(C)C5CCN(c6ccc7c(c6)C(=O)N(C6CCC(=O)NC6=O)C7=O)CC5)CC4)ncc3Cl)ccc2n(C)c1=O (centres unmarked) [compound 203, 2-((6-((5-chloro-2-(4-(2-(1-(2-(2,6-dioxopiperidin-3-yl)-1,3-dioxoisoindolin-5-yl)piperidin-4-yl)propan-2-yl)piperazin-1-yl)pyrimidin-4-yl)amino)-1-methyl-2-oxo-1,2-dihydroquinolin-3-yl)oxy)-N-methylacetamide] | < 10 | ≥ 70 | > 100 | 
2 | CC(=O)COc1cc2cc(Nc3nc(N4CCC(N(C)C5CCN(c6ccc7c(c6)C(=O)N(C6CCC(=O)NC6=O)C7=O)CC5)CC4)ncc3Cl)ccc2n(C)c1=O (centres unmarked) [compound 169, 5-(4-((1-(5-chloro-4-((1-methyl-2-oxo-3-(2-oxopropoxy)-1,2-dihydroquinolin-6-yl)amino)pyrimidin-2-yl)piperidin-4-yl)(methyl)amino)piperidin-1-yl)-2-(2,6-dioxopiperidin-3-yl)isoindoline-1,3-dione] |  |  |  | Dmax (BCL6 [1]; maximum, class symbols A-C): 50 to 70%; DC50 (BCL6 [1]; class symbols A-D, read-out: EC50 (nM)*): < 10 nM; IC50 (BCL6 [2]; class symbols A-D, read-out: IC50 (nM)***): 10 to 50 nM
3 | Cn1c(=O)c(Cn2cccn2)cc2cc(Nc3nc(N4CCC(CN5CCN(c6ccc7c(c6)C(=O)N(C6CCC(=O)NC6=O)C7=O)CC5)CC4)ncc3Cl)ccc21 (centres unmarked) [compound 225, 5-(4-((1-(4-((3-((1H-pyrazol-1-yl)methyl)-1-methyl-2-oxo-1,2-dihydroquinolin-6-yl)amino)-5-chloropyrimidin-2-yl)piperidin-4-yl)methyl)piperazin-1-yl)-2-(2,6-dioxopiperidin-3-yl)isoindoline-1,3-dione] | ≥ 100 |  | > 100 | 
4 | CNC(=O)COc1cc2cc(Nc3nc(N4CCN(C5CCN(c6cccc7c6C(=O)N(C6CCC(=O)NC6=O)C7=O)CC5)CC4)ncc3Cl)ccc2n(C)c1=O (centres unmarked) [compound 220, 2-((6-((5-chloro-2-(4-(1-(2-(2,6-dioxopiperidin-3-yl)-1,3-dioxoisoindolin-4-yl)piperidin-4-yl)piperazin-1-yl)pyrimidin-4-yl)amino)-1-methyl-2-oxo-1,2-dihydroquinolin-3-yl)oxy)-N-methylacetamide] | < 10 | 50 to 70 | > 100 | 

Further lines, with some results ahead:

Row | IC50 (BCL6 [1]) [nM] | Dmax (BCL6 [1]) [%] | EC50 (BCL6 [2]) [nM] | SMILES | further results
5 |  | ≥ 70 |  | CNC(=O)COc1cc2cc(Nc3nc(N4CCC5(CCN(CC6CCN(c7cccc8c7C(=O)N(C7CCC(=O)NC7=O)C8=O)CC6)CC5)C4)ncc3Cl)ccc2n(C(C)C)c1=O (centres unmarked) [compound 513, 2-{[6-({5-chloro-2-[8-({1-[2-(2,6-dioxopiperidin-3-yl)-1,3-dioxo-2,3-dihydro-1H-isoindol-4-yl]piperidin-4-yl}methyl)-2,8-diazaspiro[4.5]decan-2-yl]pyrimidin-4-yl}amino)-2-oxo-1-(propan-2-yl)-1,2-dihydroquinolin-3-yl]oxy}-N-methylacetamide] | IC50 (BCL6 [2]; read-out: IC50): < 10 nM
6 | ≥ 100 |  | > 100 | CNC(=O)[C@H](C)Oc1cc2cc(Nc3nc(N4CCC(CN5CCN(c6ccc7c(c6)C(=O)N([C@H]6CCC(=O)NC6=O)C7=O)CC5)CC4)ncc3Cl)ccc2n(C)c1=O [compound 211, (S)-2-((6-((5-chloro-2-(4-((4-(2-((S)-2,6-dioxopiperidin-3-yl)-1,3-dioxoisoindolin-5-yl)piperazin-1-yl)methyl)piperidin-1-yl)pyrimidin-4-yl)amino)-1-methyl-2-oxo-1,2-dihydroquinolin-3-yl)oxy)-N-methylpropanamide] | 
7 |  | 50 to 70 |  | CNC(=O)COc1cc2cc(Nc3nc(N4CCC5(CC4)CC(CN4CCN(c6ccc7c(c6)C(=O)N(C6CCC(=O)NC6=O)C7=O)CC4)C5)ncc3Cl)ccc2n(C(C)C)c1=O (centres unmarked) [compound 483, 2-{[6-({5-chloro-2-[2-({4-[2-(2,6-dioxopiperidin-3-yl)-1,3-dioxo-2,3-dihydro-1H-isoindol-5-yl]piperazin-1-yl}methyl)-7-azaspiro[3.5]nonan-7-yl]pyrimidin-4-yl}amino)-2-oxo-1-(propan-2-yl)-1,2-dihydroquinolin-3-yl]oxy}-N-methylacetamide] | IC50 (BCL6 [2]; read-out: IC50): < 10 nM
